Several values for one entry are separate records, joined by “and”; a condition that tells them apart may be missing. Equal values may be shown once. Read-outs that look alike come from different tables or passages of the source.
Experiments:
[1] = Chemical stability (stability in PBS); format: physicochemical; settings: 1 × PBS pH 7.4, 37 °C, 7.4 µM
Experimental: (§1) Pharmacological properties of the complexes 1 and 2, including stability in plasma, microsomal stability, binding to plasma proteins, and permeability through an artificial membrane, were tested under in vitro conditions and according to methods described in previous reports. Analysis of the samples was performed using Agilent RapidFire 300 High-Throughput Mass Spectrometry System (Agilent Technologies, Wakefield, MA, USA) with subsequent detection using the mass spectrometer Qtrap 5500 (AB Sciex, Concord, Toronto, ON, Canada), abbreviation RF-MS. The samples were aspirated directly from the plates into a 10 μL sample loop and passed through a C4 cartridge with solvent A (5% acetonitrile, 95% water, 0.1% formic acid) at a flow rate of 1.5 mL/min for 3 s. After the desalting step, analytes retained on the cartridge were eluted with solvent B (95% acetonitrile, 5% water, 0.1% formic acid) in the mass spectrometer at a flow rate of 0.4 mL/min for 5 s. The mass spectrometry of the samples was carried out using electrospray ionisation in the positive ion mode. Daughter ion peaks were identified using a multiple-reaction monitoring protocol.
(§2) The reaction was terminated by ice-cold methanol (chemical stability) or acetonitrile:methanol (2:1), and samples were left at −80 °C overnight (plasma stability). The solution was mixed and centrifuged (4000 rpm, 9 min, 4 °C). After lyophilization of supernatant, samples were dissolved in mobile phase with internal standard and analysed by RF/MS analysis.

[2] = Stability in human plasma; format: in vitro ADME; settings: 37 °C, 3.3 μM
Experimental: as §1, §2

[3] = Microsomal stability assay; format: in vitro ADME; settings: human liver microsomes, NADPH-generating system, 5.74 μM
Experimental: as §1
According to the protocol, reaction mixtures included tested compound (5.74 μM), human liver microsomes, NADPH-generating system consisting of NADP^+, isocitrate dehydrogenase, isocitric acid, and MgSO4 in 100 mM K/PO4 buffer. Assay was performed at 0, 15, 30, and 60 min. Reactions were terminated using acetonitrile–methanol (2:1) mixture. After centrifugation, the supernatant was lyophilized and analysed by RF-MS. The values of intrinsic clearance were calculated using the formula: CLint = 0.693/t1/2/mg microsome protein per mL of reaction.

[4] = tested on: plasma proteins; assay: Plasma protein binding (rapid equilibrium dialysis); format: in vitro ADME, human; settings: 10 μM in 50% plasma, 37 °C, 4 h
Experimental: as §1, with “The mass spectrometry of the samples was carried out using electrospray ionisation in the positive ion mode. Daughter ion peaks were identified using a multiple-reaction monitoring protocol.” left out
The fraction bound value was determined using the semipermeable membrane that separates a protein-containing compartment (R chamber) from a protein-free compartment (W chamber) (Rapid Equilibrium Dialysis, Thermo Scientific™, Rockford, IL, USA). […] Samples were dissolved in mobile phase containing internal standard and analysed on the RF/MS.

[5] = molecular target: T1, human bactosomes CYP3A4 (Homo sapiens, UniProt P08684); assay: Isothermal titration calorimetry, bactosomes CYP3A4; format: binding; settings: 25 °C; for n, CYP3A4B: ITC stoichiometry, pH 7.4; for Ka, CYP3A4B / ΔG, CYP3A4B / ΔH, CYP3A4B / ΔS, CYP3A4B / Kd: ITC, pH 7.4, 1% DMSO; for Kd: read-out: Kd, CYP3A4B
T1 construct: purchased Cypex (Dundee, UK); host or cells: bacterial membranes ('bactosomes')
Experimental: (§3) The interactions of the compounds with selected forms of cytochrome P450, i.e., human bactosomes CYP1A2, CYP2A6, CYP3A4, and recombinant human CYP3A4, were studied using isothermal titration calorimetry (ITC). ITC experiments were performed at 25 °C with a Nano ITC Low Volume (TA Instruments, New Castle, DE, USA). During all measurements, 20 injections of 16µM of the studied compound (2.5 µL each) were titrated into 250 µL of protein (2 µM) with time intervals of 300 s and a stirring speed of 250 rpm. All ITC experiments were conducted with degassed buffered solutions (100 mM phosphate buffer, pH 7.4) in the presence of 1% DMSO. Control experiments included the titration of each complex solution into a buffer. The corrected data refer to experimental data after subtraction of the buffer control data from the compounds data. The resulting thermograms were analysed using the “Independent” model within the NanoAnalyze software (TA Instruments, New Castle, DE, USA).

[6] = tested on: human liver microsomal cytochrome P450s; settings: pH 7.4
Experimental: (§4) The cuvette contained microsomes diluted to final concentration of CYP 1 µM in 50 mM potassium phosphate buffer (pH 7.4). The tested compounds were dissolved in the same buffer, and their concentrations in the experiments ranged from 0.002 to 33.310 µM. The UV-Visible spectra were recorded at room temperature by repetitive scanning between 300 and 700 nm using Varian 500 UV/VIS spectrophotometer (Agilent Technologies, Wakefield, MA, USA). Changes of absorbance in the range of the Soret’s region (380–450 nm) were plotted against the concentration of the studied compounds. Data were analysed using GraphPad Prism 6 software (La Jolla, CA, USA).

[7] = molecular target: T2, CYP3A4 (Homo sapiens, UniProt P08684); assay: Isothermal titration calorimetry, recombinant human CYP3A4; format: binding; parameters: purchased Sigma-Aldrich (Prague, Czech Republic); settings: recombinant human CYP3A4, 25 °C; for n, CYP3A4: ITC stoichiometry, pH 7.4; for Ka, CYP3A4 / Kd / ΔG, CYP3A4 / ΔH, CYP3A4 / ΔS, CYP3A4: ITC, pH 7.4, 1% DMSO
Experimental: as §3
Target sequence in this assay (P08684 whole entry): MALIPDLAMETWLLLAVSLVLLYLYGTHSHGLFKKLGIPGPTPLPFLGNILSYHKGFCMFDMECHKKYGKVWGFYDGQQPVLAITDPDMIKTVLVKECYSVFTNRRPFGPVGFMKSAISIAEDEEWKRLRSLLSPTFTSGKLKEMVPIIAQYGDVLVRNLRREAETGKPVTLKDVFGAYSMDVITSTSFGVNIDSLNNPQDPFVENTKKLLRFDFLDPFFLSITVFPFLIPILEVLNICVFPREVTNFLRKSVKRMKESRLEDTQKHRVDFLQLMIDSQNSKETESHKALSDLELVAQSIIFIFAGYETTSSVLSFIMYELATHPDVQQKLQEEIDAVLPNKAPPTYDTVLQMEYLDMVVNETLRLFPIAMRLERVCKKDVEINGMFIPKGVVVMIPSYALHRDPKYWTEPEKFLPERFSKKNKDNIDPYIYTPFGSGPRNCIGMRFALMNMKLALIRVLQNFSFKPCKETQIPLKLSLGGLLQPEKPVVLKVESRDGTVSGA

[8] = molecular target: T2, CYP3A4; assay: CYP3A4 activity (midazolam 1′-hydroxylation) in human liver microsomes; settings: read-out: IC50 CYP3A4 (midazolam 1′-hydroxylation assay); human liver microsomes
Target sequence in this assay (P08684 2-503): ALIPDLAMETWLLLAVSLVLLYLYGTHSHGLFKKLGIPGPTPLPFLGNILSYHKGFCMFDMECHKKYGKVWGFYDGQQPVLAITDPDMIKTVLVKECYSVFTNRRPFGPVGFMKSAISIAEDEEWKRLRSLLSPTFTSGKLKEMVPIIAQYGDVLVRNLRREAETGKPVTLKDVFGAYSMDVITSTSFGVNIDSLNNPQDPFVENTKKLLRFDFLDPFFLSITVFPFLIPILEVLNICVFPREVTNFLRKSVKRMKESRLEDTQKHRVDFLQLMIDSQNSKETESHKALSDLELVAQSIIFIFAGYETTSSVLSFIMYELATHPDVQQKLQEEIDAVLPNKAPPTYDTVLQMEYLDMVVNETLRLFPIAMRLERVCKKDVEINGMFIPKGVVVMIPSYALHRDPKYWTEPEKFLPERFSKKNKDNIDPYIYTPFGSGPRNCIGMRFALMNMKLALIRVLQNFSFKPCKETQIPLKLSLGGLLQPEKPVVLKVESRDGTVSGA
Experimental: For each enzyme assay, the preliminary experiments to determine Michaelis constant (Km) and limiting velocity (Vmax) were performed to calculate the time of incubation (the specified time for which the reaction is still linear) and the values of substrate concentration (in the range corresponding to the value of Km).
The reaction mixtures were buffered by 0.1 M potassium phosphate buffer (pH 7.4) and contained a NADPH-generating system consisting of the isocitrate dehydrogenase (6 U/mL), NADP^+ (0.5 mM), isocitric acid (4 mM), and MgSO4 (5 mM). The final concentration levels of complexes were obtained by diluting a 10 mM solution with dimethyl sulfoxide (DMSO). It is known that DMSO can in some cases inhibit P450; the following measures were thus applied: (a) control samples containing organic solvent without the tested compounds were prepared and used as references; (b) DMSO levels were maintained below 0.1% to minimise the inhibition. Inhibition experiments were performed using five concentration levels of the tested compounds in the range of 10–100 µM. The maximum concentration was chosen so that in the case of inhibition, it would be possible to determine the inhibitory effect of the complexes and characterise them by determining the IC50 value. Additionally, an inhibitor-free control was used as a reference. Incubations were executed in two independent batches, and the samples were prepared and measured in triplicate at 37 °C. Analyses of the metabolites formed from the specific substrates were performed by HPLC using the Prominence system (Shimadzu, Kyoto, Japan) equipped with a LiChroCART 250-4 LiChrospher 100 RP-18 column, Chromolith® HighResolution RP-18 end-capped column (Merck, Darmstadt, Germany), or Kinetex Biphenyl column (Phenomenex, Torrace, CA, USA).
The apparent Ki values were determined by additional measurements using substrate concentrations corresponding to 1/2 Km, Km, 2 Km, and 4 Km in the case of inhibition. The type of model was selected on the basis of the Lineweaver–Burk and Dixon plots. The values of IC50 were obtained by analysing the plot of the percentage of activity remaining after inhibition versus the logarithm of the inhibitor concentration using the GraphPad Prism 6 software (La Jolla, CA, USA).

[9] = tested on: human liver microsomal cytochrome P450s; assay: Difference spectra (UV-visible spectral titration) with human liver microsomes; settings: read-out: Ks (spectral binding constant); spectral differences at 386 nm, CYP 1 µM, pH 7.4, room temperature
Experimental: as §4

T1 sequence (P08684 whole entry): as the sequence (P08684 whole entry) above

| Compound | % Compound Remaining, Chemical Stability, 15 min [1] | % Compound Remaining, Chemical Stability, 30 min [1] | % Compound Remaining, Chemical Stability, 60 min [1] | % Compound Remaining, Chemical Stability, 120 min [1] | % Compound Remaining, Plasma Stability, 15 min [2] | % Compound Remaining, Plasma Stability, 30 min [2] | % Compound Remaining, Plasma Stability, 60 min [2] | % Compound Remaining, Plasma Stability, 120 min [2] | % Compound remaining, Microsomal stability, 15 min [3] | % Compound remaining, Microsomal stability, 30 min [3] | % Compound remaining, Microsomal stability, 60 min [3] | Plasma protein binding, % Fraction bound [4] | n, CYP3A4B [5] | Ka, CYP3A4B [5] | ΔG, CYP3A4B [5] | ΔH, CYP3A4B [5] | ΔS, CYP3A4B [5] | Kd [5] | n, CYP3A4 [7] | Ka, CYP3A4 [7] | other results |
| --- | --- | --- | --- | --- | --- | --- | --- | --- | --- | --- | --- | --- | --- | --- | --- | --- | --- | --- | --- | --- | --- |
| Cc1cc2cccnc2c2ncccc12.O.O=[N+]([O-])[O-].O=c1c([O-])c(-c2ccccc2)[nH]c2ccccc12.[Cu+2] [complex 1] | 99.6 ± 3.6% | 99.9 ± 1.5% | 97.8 ± 3.4% | 96.6 ± 3.4% | 98.9 ± 2.5% | 94.0 ± 3.3% | 94.2 ± 2.3% | 91.2 ± 1.2% | 99.4 ± 3.5% | 80.7 ± 2.8% | 78% and 78.1 ± 1.7% | 95% and 95.1 ± 1.0% | 0.911 | 1.92e+07 M⁻¹ | −41,558.7 J/mol | -19.13 kcal/mol | −129 J/mol.K | 0.0521 µM | 1.171 | 1.3e+07 M⁻¹ | Kd [6]: 7.59 ± 1.8 µM; Kd [7]: 0.0769 µM; ΔG, CYP3A4 [7]: −34,899.9 J/mol; ΔH, CYP3A4 [7]: -21.05 kcal/mol; ΔS, CYP3A4 [7]: −178.3 J/mol.K; IC50 [8]: 28.8 ± 2.55 µM |
| Cc1cc2cccnc2c2ncccc12.F[B-](F)(F)F.O.O=c1c([O-])c(-c2ccccc2)[nH]c2ccccc12.[Cu+2] [complex 2] | 99.6 ± 3.0% | 96.8 ± 2.4% | 94.0 ± 3.3% | 96.6 ± 2.4% | 98.3 ± 2.4% | 94.1 ± 2.4% | 96.6 ± 3.4% | 92.6 ± 2.2% | 76.5 ± 2.7% | 76.2 ± 2.7% | 70% and 69.7 ± 2.4% | 93% and 92.9 ± 1.5% | 0.859 | 2.17e+07 M⁻¹ | −41,881.2 J/mol | -14.99 kcal/mol | −69.86 J/mol.K | 0.0461 µM | 1.095 | 1.59e+07 M⁻¹ | Kd [7]: 0.0629 µM; ΔG, CYP3A4 [7]: -1.3352 kcal/mol; ΔH, CYP3A4 [7]: -12.37 kcal/mol; ΔS, CYP3A4 [7]: −154.9 J/mol.K; IC50 [8]: 33 ± 1.13 µM; Kd [9]: 8.56 ± 1 µM |

Source: article PMC10146558, “Highly Cytotoxic Copper(II) Mixed-Ligand Quinolinonato Complexes: Pharmacokinetic Properties and Interactions with Drug Metabolizing Cytochromes P450” (Pharmaceutics, 2023)
